Experiments:
[1] = molecular target: T1, human farnesyl pyrophosphate synthase (FPPS) (Homo sapiens, UniProt P14324); assay: FPPS inhibition, in vitro, recombinant enzyme; type: biochemical; conditions: GPP and IPP 10 μM each, 37° C., read-out: FFPPS nM IC50
T1 construct: made in house
T1 sequence (P14324 67-419 limits assumed): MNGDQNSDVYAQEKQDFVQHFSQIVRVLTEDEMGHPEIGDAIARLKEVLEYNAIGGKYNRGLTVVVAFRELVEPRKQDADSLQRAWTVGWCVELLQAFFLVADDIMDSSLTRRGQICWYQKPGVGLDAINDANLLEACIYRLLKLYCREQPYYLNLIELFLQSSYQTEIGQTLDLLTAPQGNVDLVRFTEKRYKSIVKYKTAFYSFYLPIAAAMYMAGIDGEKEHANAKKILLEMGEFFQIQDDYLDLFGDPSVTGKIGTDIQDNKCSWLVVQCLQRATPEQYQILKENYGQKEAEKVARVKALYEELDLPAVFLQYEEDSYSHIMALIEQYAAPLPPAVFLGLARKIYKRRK

[2] = Hydroxyapatite (HAP) affinity by chromatographic profiling on HAP column; type: binding; conditions: phosphate gradient 1 mM to 1000 mM, pH 6.8
ERK = assay: Expression and activation (phosphorylation) of ERK in myocardial tissue, SHAM or TAC mice, immunoblot and densitometry; type: in vivo, mouse

With `O=P(O)(O)C(F)(Cc1cnc2ccccn12)P(=O)(O)O` [Ox-14, 1-fluoro-2-(imidazo-[1,2-a]pyridine-3-yl)-ethyl-bisphosphonic acid] as the molecule, how does the IC50 [1] read?
Its IC50 is 2.5 nM.

What about the “HAP mineral binding (retention time in mins)” value (“HAP mineral binding” for short) [2] of the same molecule?
The value was 6.17 min.

And the “level of expression of ERK” value (ERK; SHAM animals, FIG. 1, myocardial lysate, subcutaneous dosing)?
The value was “did not change”.

What about the “phosphorylation of ERK” value (ERK; SHAM animals, FIG. 1 and FIG. 2, myocardial lysate) of the same molecule?
Its value is “not as evident”.

And the “pERK/tERK ratio, fold increase” value (ERK; SHAM group, with respect to saline treated SHAM animals, FIG. 3)?
The value was roughly 3 fold.

And the “level of phosphorylation of ERK” value (ERK; TAC conditioned animals, FIG. 2)?
Its value is “substantial increase”.

And the “pERK/tERK ratio, fold increase” value (ERK; TAC group relative to saline SHAM group, FIG. 3)?
Its value is roughly 5 fold.

What about the “pERK/tERK activity relative to zoledronic acid administered TAC group” value (ERK; TAC group, FIG. 3) of the same molecule?
The value was “about double”.

With `O=P(O)(O)C(O)(Cc1cccnc1)P(=O)(O)O` [Risedronate] as the molecule, how does the “HAP mineral binding” value [2] read?
The value was 9.97 min.

With `CCCCCN(C)CCC(O)(P(=O)(O)O)P(=O)(O)O` [Ibandronate] as the molecule, how does the “HAP mineral binding” value [2] read?
Its value is roughly 11 min.

For `O=P(O)(O)C(O)(Cc1cnc2ccccn12)P(=O)(O)O` [Minodronate], which “HAP mineral binding” value [2] is on record?
The value was 10.33 min.
